Source: patent US9586901B2, “Lactams” (UNILEVER PLC, priority 2006, dated 2017)

Columns and labels:
[1] = tested on: V. fischeri luxRI system; test: N-acylated homoserine lactone (AHL) quorum sensing assay, GFP reporter strain; type: cell-based, E. coli
Description: Compounds of the present invention were compared to compounds of the prior art in order using an AHL-quorum sensing assay which utilises a reporter strain that expresses Green Fluorescent Protein (GFP) in the presence of AHL signals. The assay is performed by measuring GFP output in the presence of the compound to be measured and comparing the output to a control. By using multiple samples at varying concentrations of compound and AHL, an inhibition index of compound activity can be generated. The inhibition index used in the present example is the relative amount of compound required to reduce GFP expression to 40% of the control. The inhibition index is termed AIC40. Lower values of AIC40 represent better inhibitors of the AHL quorum sensing system.
The reporter strain of bacterium used in this assay is E. coli into which the V. fischeri luxRI system has been engineered. A gfp gene is fused to the QS controlled luxI promoter as is described in (Andersen et al., 2001, and Andersen et al, 1998).
Measurement of AIC40 (ID40 at 3 nM OHHL)
Determination of the activity of compounds using the E. coli based luxRI construct was performed as follows.
In a 15 mL plastic tube, mix 3 mL of o.n. culture of the lux reporter strain with 12 mL fresh medium, incubate at 37° C. Label six tubes, 10, 20, two 50 and two 100. To each of the tubes, add OHHL (3-oxohexanoyl homoserine lactone) to a final concentration of 10, 20, 50, or 100 nM respectively in the AB medium (add enough medium to distribute across the appropriate number of wells). To the first row of the microplate (row A), add 200 ul of the OHHL/AB mixture. To the remaining rows (B-H) add 100 ul of the OHHL/AB mixture. To the first row (A) add compounds to be tested to the 200 ul mixture of OHHL/AB. Make a dilution series in the first 7 rows by transferring 100 μL from wells in row 1 to wells in row 2 and so on. Discard the remaining 100 μL from row 7. Add 100 μL diluted lux monitor to each well. Incubate the plate 2 hours at 37° C. and measure green fluorescence using the “Victor” plate reader.
Calculate ID40 for each column. To do this, calculate the relative activity in each well. […] Make a plot for each concentration of OHHL vs. the range of compound concentrations used. Calculate the amount of compound needed to lower the relative activity to 40%, this is termed inhibiting dose 40%, ID40. For each compound an inhibition index, AIC40, is found as follows: plot ID40 against its respective AHL concentration; AIC40 is the slope of the best straight line through the plotted points and origin.
The methodology for this assay is set out in 2(a) above.

[2] = tested on: LasR; test: LasR assay (unstable gfp fused to the elastase promoter); type: cell-based; details: Pseudomonas aeruginosa, read-out: LasR (conc)
Description: Compounds of the present invention were also assayed using a LasR assay. The LasR assay provides a measurement of quorum sensing inhibition activity. The higher the percentage inhibition. […] In the LasR assay, an unstable gfp has been fused to the elastase promoter, so that the amount of Gfp is regulated by the QS system. The plasmid is put into Pseudomonas aeruginosa which makes its own AHL signals. The assay is performed by adding the compounds to be tested to the system at the beginning of the experiment, at different concentrations. Gfp expression is measured at different times during growth, ending at the 24 h time point. The percentage fluorescence was determined at the time point when the fluorescence reached its maximum in the control, usually around 11-12 h after inoculation.

[3] = tested on: Staphylococcus epidermidis; test: S. epidermidis growth inhibition (OD600 growth curves); type: cell-based; details: concentration of compound that significantly alters growth rate or final growth yield
Description: The growth inhibition of Staphylococcus epidermidis by the compounds of the present invention was determined by growing S. epidermidis in 96 well microtitre plates in Trypticase Soy Broth plus 0.5% glucose in a Wallac Victor2 microplate reader. Each compound was added to the wells at different concentrations and a no-compound control and a set of blank wells were also used. The OD600 was measured hourly.

[4] = tested on: P. aeruginosa biofilm; test: Inhibition of biofilm formation in petri dishes, P. aeruginosa; type: cell-based; details: 1 ug/ml; percent reduction of control
Description: (§1) Biofilm formation in petri dishes was measured using the following protocol as a compromise between flow cells and microtitire plate based assays. The method increases the number of replicates (relative to flow cells) that can be tested while still generating a biofilm that has typical structures, such as microcolonies, which are important as differentiated structures within the biofilm. The method consists of placing a surface, such as a glass slide (for unattached compounds) or a modified plastic coupon (for covalently attached compounds) on the bottom of a sterile petri dish and adding growth medium. The bacteria are inoculated into the dish and allowed to incubate at the appropriate temperature at 50 rpm. The medium is replaced at 24 h and allowed to incubate a further 24 h, after which time, the slides are removed and rinsed to remove loosely attached cells. For monitoring biofilm formation on glass slides, the cells are either stained with a suitable fluorescent stain and are visualised using the confocal microscope and the biofilm (as % surface coverage) is quantified, or the biofilm is stained with crystal violet, washed thoroughly to remove excess stain, and subsequently destained and the absorbance at […] is measured to determine the amount of biofilm, as a function of crystal violet staining.

[5] = tested on: S. epidermidis biofilm; test: Inhibition of biofilm formation in petri dishes, S. epidermidis; type: cell-based; details: 0.32 ug/ml; percent reduction of control
Description: as §1

[6] = tested on: E. coli biofilm; test: Inhibition of biofilm formation in petri dishes, E. coli; type: cell-based; details: 1.5 ug/ml; percent reduction of control
Description: as §1

## C=C1NC(=O)C=C1c1ccc(Br)cc1 [drawing 25]
[1]; Table 4, number in parentheses, amount of compound lowering relative activity to 40%
  ID40 at 3 nM OHHL: 21 nM
[1]; Table 4 comparative results, first number of the cell, lower = better
  AIC40: 0.49
[1]; inhibition index: slope of ID40 against AHL concentration, lower = better inhibitor, NE = no effect
  AIC40: 0.49
[2]
  inhibition at 50 µg/mL: 45%
[3]
  minimal effective concentration: 1 µg/mL
[4]
  P. aeruginosa biofilm: 32% (1 ug/ml)
[5]
  S. epidermidis biofilm: 41% (0.32 ug/ml)
[6]
  E. coli biofilm: 93% (1.5 ug/ml)
